Consider 28 compounds from patent US7777035B2, “Azaindazole compounds and methods of use” (Chemocentryx, Inc., priority 2005, dated 2010).

Molecules are shown by their SMILES. Bounds are passed on as bounds.

In the assay the target is T1, CCR1 (Homo sapiens, UniProt P32246).
T1 construct: host or cells: THP-1 cells or monocytes isolated from human buffy coats
T1 sequence (P32246 1-355): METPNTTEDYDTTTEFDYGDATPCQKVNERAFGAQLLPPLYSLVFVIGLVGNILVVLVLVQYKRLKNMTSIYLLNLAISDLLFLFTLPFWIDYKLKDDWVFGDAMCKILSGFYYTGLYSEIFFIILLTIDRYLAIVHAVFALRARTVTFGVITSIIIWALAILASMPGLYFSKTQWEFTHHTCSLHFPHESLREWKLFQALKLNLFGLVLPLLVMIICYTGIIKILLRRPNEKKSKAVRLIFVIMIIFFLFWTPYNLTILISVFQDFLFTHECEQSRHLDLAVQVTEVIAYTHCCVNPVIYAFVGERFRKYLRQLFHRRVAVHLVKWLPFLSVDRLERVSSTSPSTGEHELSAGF
The experiment in a line: CCR1 chemotaxis assay or binding assay (activity given for either). The note with it: either the chemotaxis assay or binding assay; CCR1 expressing cells (THP-1 or human monocytes); read-out: Activity (IC50 class). Here is the method:
Cells were grown under 5% CO2/95% air, 100% humidity at 37° C. and subcultured twice weekly at 1:5 (cells were cultured at a density range of 2×10^5 to 2×10^6 cells/mL) and harvested at 1×10^6 cells/mL. THP-1 cells express CCR1 and can be used in CCR1 binding and functional assays.
Monocytes were isolated from human buffy coats using the Miltenyi bead isolation system (Miltenyi, Auburn, Calif.). Briefly, following a Ficoll gradient separation to isolate peripheral blood mononuclear cells, cells were washed with PBS and the red blood cells lysed using standard procedures. Remaining cells were labeled with anti-CD14 antibodies coupled to magnetic beads (Miltenyi Biotech, Auburn, Calif.). Labeled cells were passed through AutoMACS (Miltenyi, Auburn, Calif.) and positive fraction collected. Monocytes express CCR1 and can be used in CCR1 binding and functional assays.
CCR1 expressing cells were centrifuged and resuspended in assay buffer (20 Mm HEPES pH 7.1, 140 Mm NaCl, 1 Mm CaCl2, 5 Mm MgCl2, and with 0.2% bovine serum albumin) to a concentration of 5×10^6 cells/mL for THP-1 cells and 5×10^5 for monocytes. Binding assays were set up as follows. […] Reactions were aspirated onto GF/B glass filters pre-soaked in 0.3% polyethyleneimine (PEI) solution, on a vacuum cell harvester (Packard Instruments; Meriden, Conn.). Scintillation fluid (40 μl; Microscint 20, Packard Instruments) was added to each well, the plates were sealed and radioactivity measured in a Topcount scintillation counter (Packard Instruments). Control wells containing either diluent only (for total counts) or excess MIP-1α or MIP-1β (1 μg/mL, for non-specific binding) were used to calculate the percent of total inhibition for compound. The computer program Prism from GraphPad, Inc. (San Diego, Calif.) was used to calculate IC50 values.
Chemotaxis assays were performed using 5 ┌ m pore polycarbonate, polyvinylpyrrolidone-coated filters in 96-well chemotaxis chambers (Neuroprobe; Gaithersburg, Md.) using chemotaxis buffer (Hank's balanced salt solution (HBSS) and 1% FBS). CCR1 chemokine ligands (i.e., MIP-1α, CCL15/Leukotactin; R&D Systems; Minneapolis, Minn.) are use to evaluate compound mediated inhibition of CCR1 Mediated migration. Other chemokines (i.e., SDF-1α; R&D Systems; Minneapolis, Minn.) are used as specificity controls. […] The chambers were incubated 1-2 hours at 37° C., and the number of cells in the lower chamber quantified either by direct cell counts in five high powered fields per well or by the CyQuant assay (Molecular Probes), a fluorescent dye method that measures nucleic acid content and microscopic observation.
THP-1 cells and monocytes lack other chemokine receptors that bind the same set of chemokine ligands as CCR1 (i.e., MIP-1α, MPIF-1, Leukotactin, etc.). Equal numbers of cells were added to each well in the plate. The cells were then incubated with radiolabeled MIP-1α. Unbound ligand was removed by washing the cells, and bound ligand was determined by quantifying radioactive counts. […] Percent inhibition was determined by the equation: […]
In the assay, the amount of compound was varied; while cell number and ligand concentration were held constant.
One of the primary functions of chemokines is their ability to mediate the migration of chemokine receptor-expressing cells, such as white blood cells. […] THP-1 Myelomonocytic leukemia cells, which resemble monocytes, as wells as freshly isolated monocytes, were used as targets for chemoattraction by CCR1 chemokine ligands (i.e., MIP-1α, CCL15/leukotactin). […] In this assay, the amount of compound was varied; while cell number and chemokine agonist concentrations were held constant. After the chemotaxis chambers were incubated 1-2 hours at 37° C., the responding cells in the lower chamber were quantified by labeling with the CyQuant assay (Molecular Probes), a fluorescent dye method that measures nucleic acid content, and by measuring with a Spectrafluor Plus (Tecan).

For the compound `COc1cc(N2CCN(C(=O)Cn3ncc4c(OC)ncnc43)CC2)ccc1Cl` [Compound 1.045], the IC50 was under 1000 nM.
In the case of `COc1cc(N2CCN(C(=O)Cn3ncc4ccncc43)CC2)ccc1Cl` [Compound 1.019], the IC50 is under 1000 nM.
Next, `COc1cc(N2CCN(C(=O)Cn3nc(-c4ncc[nH]4)c4cccnc43)CC2)ccc1Cl` [Compound 1.080]: under 1000 nM; `COc1cc(N2CCN(C(=O)Cn3ncc4ccc(C)nc43)CC2)ccc1Cl` [Compound 1.031]: under 1000 nM.
As to `COc1cc(N2CCN(C(=O)Cn3nc(-c4noc(C)n4)c4cccnc43)CC2)ccc1Cl` [Compound 1.059], the IC50 is under 1000 nM.
Regarding `COc1cc(N2CCN(C(=O)Cn3cc4cccnc4n3)[C@@H](C)C2)c(F)cc1Cl` [Compound 1.002], the IC50 was under 1000 nM.
Regarding `C[C@H]1CN(c2ccc(Cl)c(OCCF)c2)CCN1C(=O)Cn1nc(-c2ncc[nH]2)c2cccnc21` [Compound 1.076], the 50% inhibitory concentration (IC50) was under 1000 nM.
Regarding `COc1cc(N2CCN(C(=O)Cn3nc(-c4ncco4)c4cccnc43)[C@@H](C)C2)c(F)cc1Cl` [Compound 1.017], the IC50 was under 1000 nM.
Take `COc1cc(N2CCN(C(=O)Cn3nc(I)c4cccnc43)[C@@H](C)C2)c(F)cc1Cl` [Compound 1.064]: the IC50 was under 1000 nM.
As for `COc1cc(N2CCN(C(=O)Cn3nc(S(C)(=O)=O)c4cccnc43)CC2)ccc1Cl` [Compound 1.061], the half-inhibitory concentration (IC50) is under 1000 nM.
In the case of `COc1cc(N2CCN(C(=O)Cn3nc(CN=[N+]=[N-])c4cccnc43)CC2)ccc1Cl` [Compound 1.040], the IC50 was under 1000 nM.
On to `COc1cc(N2CCN(C(=O)Cn3nc(CN)c4cccnc43)CC2)ccc1Cl` [Compound 1.062], for which the IC50 is 1000 to 2500 nM.
Consider `COc1cc(N2CCN(C(=O)Cn3nc(-c4ncc[nH]4)c4cccnc43)[C@@H](C)C2)ccc1Cl` [Compound 1.069], for which the IC50 was under 1000 nM.
Turning to `COc1cc(N2CCN(C(=O)Cn3ncc4ccc(Cl)nc43)CC2)ccc1Cl` [Compound 1.047], the IC50 is under 1000 nM.
On to `COc1cc(N2CCN(C(=O)Cn3ncc4c(Cl)ncnc43)CC2)ccc1Cl` [Compound 1.044], for which the IC50 is under 1000 nM.
Next, `O=C(Cn1nc(-c2ncc[nH]2)c2cccnc21)N1CCN(c2ccc(Cl)c(C(F)(F)F)c2)CC1` [Compound 1.078]: 2500 to 12500 nM; `Cc1cc(N2CCN(C(=O)Cn3nc(-c4ncc[nH]4)c4cccnc43)CC2)ccc1Cl` [Compound 1.077]: under 1000 nM; `COc1cc(N2CCN(C(=O)Cn3cc4c(I)ccnc4n3)CC2)ccc1Cl` [Compound 1.037]: under 1000 nM.
Consider `COc1cc(N2CCN(C(=O)Cn3cc4ccc(Cl)nc4n3)CC2)ccc1Cl` [Compound 1.046], for which the half-inhibitory concentration (IC50) was under 1000 nM.
For `COc1cc(N2CCN(C(=O)Cn3cc4cccnc4n3)CC2)ccc1Cl` [Compound 1.006], the IC50 is under 1000 nM.
As to `COc1cc(N2CCN(C(=O)Cn3ncc4cccnc43)CC2)c(F)cc1Cl` [Compound 1.012], the IC50 is under 1000 nM.
In the case of `COc1cc(N2CCN(C(=O)Cn3ncc4ccc[n+]([O-])c43)CC2)ccc1Cl` [Compound 1.030], the IC50 was under 1000 nM.
With `COc1cc(N2CCN(C(=O)Cn3nc(C)c4cccnc43)[C@@H](C)C2)c(F)cc1Cl` [Compound 1.005], the IC50 is under 1000 nM.
Turning to `COc1cc(N2CCN(C(=O)Cn3nc(C)c4cc(N)cnc43)CC2)ccc1Cl` [Compound 1.053], the IC50 is under 1000 nM.
`COc1cc(N2CCN(C(=O)Cn3cc4ccncc4n3)[C@@H](C)C2)c(F)cc1Cl` [Compound 1.009]: the IC50 is under 1000 nM.
Turning to `COc1cc(N2CCN(C(=O)Cn3ncc4ccncc43)[C@@H](C)C2)c(F)cc1Cl` [Compound 1.034], the IC50 is under 1000 nM.
Next, `COc1cc(N2CCN(C(=O)Cn3cc4ccncc4n3)CC2)ccc1Cl` [Compound 1.018]: under 1000 nM; `COc1cc(N2CCN(C(=O)Cn3nc(-c4nccs4)c4cccnc43)[C@@H](C)C2)c(F)cc1Cl` [Compound 1.021]: under 1000 nM.

By IC50 is commonly meant the concentration needed to halve the response being measured.
